What was measured:
MDA cells [1] = assay: [3H]thymidine cell proliferation assay; format: cell-based, Human; conditions: [3H]thymidine incorporation, 10% FBS for 12 h of treatment; read-out: IC50 of C6, inhibition of MDA cell proliferation
Procedure: To determine the utility of conventional lipid formulations for the delivery of short-chain ceramide to MDA cells, a [^3H]thymidine proliferation assay was performed. Briefly, MDA cells were seeded at 3.5×10^4 cells/well in 24-well plates and grown overnight prior to 24 h of serum starvation. At hour 12 of serum starvation, cells were treated with liposomal or nonliposomal C6 for the remainder of serum starvation. Following serum starvation, media was then supplemented with FBS (10% final concentration) for an additional 12 h, and cellular proliferation was assayed with the addition of 0.5 mCi/ml [^3H]thymidine for the final 4 h of treatment. Cells were washed once with cold PBS and then twice with 10% trichloric acetic acid for 10 min. Cells were solubilized with 0.3 N NaOH, and [^3H]thymidine incorporation into acid-insoluble DNA was assessed with a scintillation counter.

MDA cells [2] = assay: TUNEL staining of cleaved DNA; format: cell-based, Human
Procedure: An investigation to determine whether C6-dependent growth inhibition correlates with enhanced apoptosis was undertaken. To confirm that C6 delivery leads to MDA cell apoptosis, TUNEL analysis (Upstate Biotechnology, Lake Placid, N.Y.) was performed, which stains cleaved DNA, a hallmark of cellular apoptosis (FIG. 7A).

[3] = Toxicity after intravenous injection; format: in vivo; conditions: injection at 10 mg/kg

For `CCCCCCCCCCCCC/C=C/[C@@H](O)[C@H](CO)NC(=O)CCCCC` [nonliposomal C6, D-erythro-hexanoyl-sphingosine], the IC50 (MDA cells [1]) was 15 µM, the “DNA fragmentation (TUNEL) at 16 h” value (MDA cells [2]; 20 μM, 16 h of treatment) was “induced DNA fragmentation” and the “DNA fragmentation (TUNEL) at 8 h” value (MDA cells [2]; cycling, serum-fed MDA cells, 8 h) was “no DNA fragmentation”. The mice killed [3] was 50%.

Reference: patent US9326953B2, “Method and system for systemic delivery of growth arresting, lipid-derived bioactive compounds” (priority 2003, dated 2016)
